Patent US9884816B2, “Sulforaphane-derived compounds, production method thereof and the medical, food and cosmetic use of same” (Consejo Superior De Investigaciones Científicas (CSIC), priority 2012, dated 2018)

What was measured:
[1] = test system: MRC-5 (fetal lung fibroblasts); test: Cytotoxicity curve, MRC-5 cell line; format: cell-based; settings: mean ± SEM, at least 3 independent experiments
Experimental: (§1) FIG. 5. Curve of cytotoxicity of the compounds 15S, and 15R, at four different concentrations ([…]) in comparison with Sigma-Aldrich® sulphoraphane at five different concentrations ([…]) for the cell lines A-549 (human lung adenocarcinoma) and MRC-5 (fetal lung fibroblasts), showing IC50 for all the products in each of the cell lines used in the test, expressed as mean±standard error (SEM) of all the tests conducted. Each diagram represents at least 3 independent experiments and both within them and for each value of IC50, the result of statistical analysis is indicated for the t-test with the p-value. The t-test indicates whether two values have a significant difference from the statistical standpoint. A p-value above 0.05 is not regarded as statistically significant and is not represented by any symbol, a p-value below 0.05 indicates statistical significance and is indicated with an asterisk (*), and then if p is below 0.01 it is indicated with two asterisks, and with three if it is below 0.001.

[2] = test system: A-549 (human lung adenocarcinoma); test: Cytotoxicity curve, A-549 cell line; format: cell-based; settings: mean ± SEM, at least 3 independent experiments
Experimental: as §1

| Compound | IC50 [1] | IC50 [2] |
| --- | --- | --- |
| C[S@+]([O-])CCOCCOCCN=C=S [SF 15Ss, (S)-(+)-8-Isothiocyanato-3,6-dioxaoctanylmethyl sulphoxide] | 58.3 ± 6.54 µM | 22.7 ± 0.69 µM |
| C[S+]([O-])CCCCN=C=S (centres unmarked) [SF Sigma ®] | 30.5 ± 2.02 µM | 16.5 ± 3.05 µM |
| (R)-(−)-8-Isocyanato-3,6-dioxaoctanylmethyl sulphoxide [SF 15Rs] | 67.3 ± 6.25 µM | 29.4 ± 3.89 µM |
| C[S@@+]([O-])CCCCN=C=S (racemic) [SF, (Rs)-1-isothiocyanato-4-(methylsulphinyl)-butane] | 46.6 ± 2.19 µM | 19.6 ± 2.27 µM |
